This is an account of results in article PMC5164911, “Comparative Analysis of the Interaction between Different Flavonoids and PDIA3” (Oxidative Medicine and Cellular Longevity, 2016).

Like-named read-outs stand apart in the source and are kept apart here.

The target in assay [1] is T1, PDIA3 (Homo sapiens, UniProt P30101).
T1 construct: made in house; host or cells: E. coli BL21 (vector pET21)
T1 sequence (P30101 25-505): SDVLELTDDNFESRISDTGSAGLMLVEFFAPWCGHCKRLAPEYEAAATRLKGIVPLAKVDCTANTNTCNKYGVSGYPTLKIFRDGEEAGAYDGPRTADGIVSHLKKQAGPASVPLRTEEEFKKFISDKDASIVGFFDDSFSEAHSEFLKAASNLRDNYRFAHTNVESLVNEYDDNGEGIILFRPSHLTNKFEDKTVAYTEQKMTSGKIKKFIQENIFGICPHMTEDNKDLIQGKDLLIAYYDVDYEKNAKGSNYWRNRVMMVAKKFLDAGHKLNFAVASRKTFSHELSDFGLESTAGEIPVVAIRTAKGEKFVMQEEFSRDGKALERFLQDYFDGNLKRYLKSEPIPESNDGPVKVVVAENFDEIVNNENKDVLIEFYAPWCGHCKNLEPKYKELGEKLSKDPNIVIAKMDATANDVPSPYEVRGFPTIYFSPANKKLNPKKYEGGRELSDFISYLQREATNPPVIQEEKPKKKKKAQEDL
The assay can be described thus: Fluorescence quenching titration of PDIA3 intrinsic fluorescence. The assay is classed as binding. Conditions: for Stern-Volmer constant (K SV): 0.5∗10^−6 M PDIA3 in reduced conditions, pH 7.4, 25°C, flavonoid 0 to 10∗10^−6 M, mean and standard deviation; for bimolecular quenching rate constant (K q): K SV = K q τ0 with τ0 of the order of 10^−8 s; for binding constant (K b): equation of Bi et al., reiterative calculation of Sun et al. As to the method: Quantitative analysis of the interaction between individual flavonoids and PDIA3 was performed by fluorimetric titration. […] Briefly, solution of PDIA3 (0.5 μM) or a and a′ domains (1 μM) in phosphate buffered saline (PBS) containing DTT 0.1 mM and EDTA 0.2 mM were titrated in quartz cuvette by stepwise additions, at 5 min time intervals, of individual flavonoid solution (1 mM in PBS/ethanol 50 : 50 v/v freshly prepared from a 20 mM stock solution in DMSO). […] To minimize the inner-filter effect we limited the highest concentration reached in the titration test up to 10 μM. All experiments were carried out at 25°C. Each spectrum was the mean of three repeated scans. Fluorescence spectra of appropriate blanks (flavonoids without proteins) were recorded under the same experimental conditions and subtracted from the corresponding flavonoid-protein system to correct the fluorescence background.
Quenching analysis was performed on PDIA3 (0.5 μM), in the reduced form, by adding stepwise increasing concentration of each molecule and recording the protein fluorescence spectra. For some flavonoids the analysis was extended to isolate a′ domain (1 μM), always in the reduced form. […] For each ligand molecule the Stern-Volmer quenching constant was obtained by linear regression of plots of F 0/F versus [L].
The Stern-Volmer quenching constant may be expressed as K SV = K q τ 0, where K q is the quencher rate coefficient and τ 0 is the average lifetime of the emissive excited state of the protein in the absence of the quencher.
The number of binding sites (n) and the binding constant (K b) were obtained by plotting log((F 0 − F)/F) versus log(1/([L t] − n(F 0 − F)[P t]/F 0)) using the reiterative calculation process described by Sun et al., assuming a similar affinity for each binding site.

The target in assay [2] is T1, PDIA3. The assay can be described thus: Disulfide reductase activity with DiE-GSSG fluorogenic probe. Conditions: DiE-GSSG substrate; for Inhibition of disulfide reductase (redox) activity: 20 μM flavonoid (Figure 7). The assay is classed as biochemical. As to the method:
Disulfide reductase activity of ERp57 was monitored by sensitive fluorescent assay using dieosin glutathione disulfide (DiE-GSSG) as fluorogenic probe. DiE-GSSG was synthesized by the reaction of eosin isothiocyanate with oxidized glutathione (GSSG) according to the method of Raturi and Mutus with some modifications. DiE-GSSG concentration was determined spectrophotometrically (ℇ 525 = 88,000 M^-1 cm^−1). Disulfide reductase activity was assayed in a reaction buffer containing 2 mM EDTA, 150 nM DiE-GSSG, and 5 μM DTT in PBS. A 20 μl aliquot of a stock solution of PDIA3 (1 μM) was added to the reaction mixture and DiE-GSSG reduction was monitored at 545 nm with excitation at 520 nm, at 25°C with continuous stirring. Reductase activity was calculated as the initial velocity in fluorescence increase. To test the effect of flavonoids on PDIA3 activity, the protein stock solution was previously incubated for 15 minutes at room temperature with different concentrations of each flavonoid and then a 20 μl aliquot subjected to assay in a reaction buffer containing the same concentration of the flavonoid.
Fluorescence quenching constant (K SV) values were given as means ± standard deviation and values of disulfide reductase activity were expressed in % of control sample ± relative standard deviation. All measurements were performed at least three times. Dunnett's test was used to compare the obtained reductase activity data with the activity of the untreated protein and a p value of <0.01 was considered as statistically significant.

[3] abbreviates: K d = 1/K b, reduced PDIA3, pH 7.4, 25°C, read-out: dissociation constant (K d).

Take `COc1ccc(-c2cc(=O)c3c(O)c(OC)c(OC)cc3o2)cc1O` [Eupatorin, eupatorin]: the “Stern-Volmer constant (K SV)” value at PDIA3 [1] came to 89362 ± 688 M⁻¹. Further, the Kd at PDIA3 [1] (Figure 8, no unit printed in the picture, read-out: Dissociation constant (Kd)) came out at 10.3 µM; at PDIA3 [1] (setting [3]), 10.3 µM. Further, the “bimolecular quenching rate constant (K q)” value on PDIA3 [1] (reduced PDIA3, pH 7.4, 25°C) is 8.94e+12 M⁻¹ s⁻¹. Also, the “binding constant (K b)” value on PDIA3 [1] (reduced PDIA3, pH 7.4, 25°C) is 96700 M⁻¹. The “Inhibition of disulfide reductase (redox) activity” value at PDIA3 [2] is reported as 40%; at PDIA3 [2] (listed as eupatorin) it was “up to 40%”. For the same compound, the “Effect on disulfide reductase activity (in words)” value at PDIA3 [2] is listed as “noticeable inhibitory effect”.
Consider `O=c1cc(-c2ccc(O)cc2)oc2cc(O)cc(O)c12` [Apigenin, apigenin], for which the “Stern-Volmer constant (K SV)” value on PDIA3 [1] is 54332 ± 1185 M⁻¹. Further, at PDIA3 [1] (reduced PDIA3, pH 7.4, 25°C), the “bimolecular quenching rate constant (K q)” value was determined as 5.43e+12 M⁻¹ s⁻¹ and the “binding constant (K b)” value is 58700 M⁻¹. In addition, at PDIA3 [1] (setting [3]), the Kd came out at 17 µM. Further, the “Effect on disulfide reductase activity (in words)” value at PDIA3 [2] was “no evident effect”.
As for `COc1ccc(-c2cc(=O)c3c(OC)c(OC)c(OC)cc3o2)cc1O` [Eupatorin-5-methyl ether, eupatorin-5-methyl-ether], at PDIA3 [1], the “Stern-Volmer constant (K SV)” value amounted to 90016 ± 1875 M⁻¹. On PDIA3 [1] (reduced PDIA3, pH 7.4, 25°C), the “bimolecular quenching rate constant (K q)” value came to 9e+12 M⁻¹ s⁻¹ and the “binding constant (K b)” value is 90400 M⁻¹. For the same compound, the Kd on PDIA3 [1] (setting [3]) was found to be 11.1 µM. Further, at PDIA3 [2], the “Inhibition of disulfide reductase (redox) activity” value was “up to 40%” and the “Effect on disulfide reductase activity (in words)” value is “noticeable inhibitory effect”.
